Test results from PubChem BioAssay (NCI).
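Growth conditions: 96-well plates. Treatment: test compound, 48 hours, 5 concentrations. Analysis: linear interpolation between bracketing concentrations; unreached endpoints set to highest concentration. TGI denotes the concentration required for complete inhibition of growth.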

Experiments:
Assay in all cases: growth of human tumour cells (NCI), 48 h
SK-MEL-5 melanoma = system: SK-MEL-5 melanoma
TK-10 renal = system: TK-10 renal
U251 CNS = system: U251 CNS
CAKI-1 renal = system: CAKI-1 renal
SW-620 colon = system: SW-620 colon
T-47D breast = system: T-47D breast
UO-31 renal = system: UO-31 renal
UACC-257 melanoma = system: UACC-257 melanoma
A498 renal = system: A498 renal
M14 melanoma = system: M14 melanoma
HCT-15 colon = system: HCT-15 colon
SF-295 CNS = system: SF-295 CNS
HS 578T breast = system: HS 578T breast
COLO 205 colon = system: COLO 205 colon
786-0 renal = system: 786-0 renal
HCT-116 colon = system: HCT-116 colon
OVCAR-8 ovarian = system: OVCAR-8 ovarian
HOP-92 NSCLC = system: HOP-92 NSCLC
MDA-MB-435 = system: MDA-MB-435
MCF7 breast = system: MCF7 breast
EKVX NSCLC = system: EKVX NSCLC
SNB-75 CNS = system: SNB-75 CNS
PC-3 prostate = system: PC-3 prostate
A549 NSCLC = system: A549 NSCLC
SF-268 CNS = system: SF-268 CNS
NCI-H460 lung = system: NCI-H460 lung
MDA-MB-231 breast = system: MDA-MB-231 breast
SK-MEL-2 melanoma = system: SK-MEL-2 melanoma
NCI-H23 lung = system: NCI-H23 lung
NCI-H226 lung = system: NCI-H226 lung
KM12 colon = system: KM12 colon
IGROV1 ovarian = system: IGROV1 ovarian
OVCAR-5 ovarian = system: OVCAR-5 ovarian
SF-539 CNS = system: SF-539 CNS
OVCAR-4 ovarian = system: OVCAR-4 ovarian
SK-OV-3 ovarian = system: SK-OV-3 ovarian
DU-145 prostate = system: DU-145 prostate
K-562 leukemia = system: K-562 leukemia
CCRF-CEM leukemia = system: CCRF-CEM leukemia
NCI/ADR-RES ovarian = system: NCI/ADR-RES ovarian
MALME-3M melanoma = system: MALME-3M melanoma
LOX IMVI melanoma = system: LOX IMVI melanoma
UACC-62 melanoma = system: UACC-62 melanoma
SNB-19 CNS = system: SNB-19 CNS
BT-549 breast = system: BT-549 breast
ACHN renal = system: ACHN renal
SR leukemia = system: SR leukemia
MDA-N = system: MDA-N
HCC-2998 colon = system: HCC-2998 colon
HT29 colon = system: HT29 colon
SN12C renal = system: SN12C renal
NCI-H522 lung = system: NCI-H522 lung
SK-MEL-28 melanoma = system: SK-MEL-28 melanoma
RPMI-8226 leukemia = system: RPMI-8226 leukemia
RXF 393 renal = system: RXF 393 renal
OVCAR-3 ovarian = system: OVCAR-3 ovarian
HOP-62 NSCLC = system: HOP-62 NSCLC
MOLT-4 leukemia = system: MOLT-4 leukemia
HL-60(TB) leukemia = system: HL-60(TB) leukemia

Measured: TGI

CC1(O)CC23CC1CCC2(C)C12CCCC(C)(C(=O)O1)C2CC3O (configuration not stated)
not listed: RPMI-8226 leukemia | RXF 393 renal | OVCAR-3 ovarian | HOP-62 NSCLC | MOLT-4 leukemia | HL-60(TB) leukemia
> 100 µM: all other assays above

COc1cc2nc(-c3ccccc3F)[nH]c(=O)c2cc1OC
not listed: U251 CNS | SW-620 colon | MDA-MB-435 | SF-539 CNS | SK-MEL-28 melanoma
> 100 µM: all other assays above
